Values quoted from earlier work as cited in patent publication US20060006323A1, “Method and an apparatus for evaluating toxicity of chemical agents” (priority 2004, published 2006).

Molecular target: T1, AhR (Homo sapiens, UniProt P35869)
T1 sequence (P35869 11-848): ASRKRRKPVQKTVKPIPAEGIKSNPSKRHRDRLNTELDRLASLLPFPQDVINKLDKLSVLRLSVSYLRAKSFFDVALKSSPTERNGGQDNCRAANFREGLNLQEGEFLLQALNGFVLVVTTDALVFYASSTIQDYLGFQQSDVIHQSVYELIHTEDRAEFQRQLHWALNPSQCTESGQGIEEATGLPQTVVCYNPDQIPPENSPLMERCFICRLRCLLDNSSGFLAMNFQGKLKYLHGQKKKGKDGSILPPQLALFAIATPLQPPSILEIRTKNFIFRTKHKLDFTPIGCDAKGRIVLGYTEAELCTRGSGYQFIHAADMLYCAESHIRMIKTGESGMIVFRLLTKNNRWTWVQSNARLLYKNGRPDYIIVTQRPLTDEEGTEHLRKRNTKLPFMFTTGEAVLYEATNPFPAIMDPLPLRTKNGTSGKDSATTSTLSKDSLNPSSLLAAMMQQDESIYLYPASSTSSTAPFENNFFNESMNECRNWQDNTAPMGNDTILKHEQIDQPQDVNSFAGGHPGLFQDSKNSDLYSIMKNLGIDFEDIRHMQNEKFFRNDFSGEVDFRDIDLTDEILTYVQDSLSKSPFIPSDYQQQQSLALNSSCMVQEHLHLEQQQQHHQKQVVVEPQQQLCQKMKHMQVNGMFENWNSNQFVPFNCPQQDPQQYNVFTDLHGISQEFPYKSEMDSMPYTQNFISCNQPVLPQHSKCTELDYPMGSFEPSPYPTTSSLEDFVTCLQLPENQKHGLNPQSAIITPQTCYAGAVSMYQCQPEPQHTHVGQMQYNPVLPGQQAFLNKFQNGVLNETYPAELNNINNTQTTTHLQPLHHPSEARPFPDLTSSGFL
Details: published by Matsui et al. 2002, HPLC bioassay; cited from earlier work

Structure (SMILES) | affinity with AhR
O=C1/C(=C2\Nc3ccccc3C2=O)Nc2ccccc21 [indigo] | strong affinity

System: not given
Details: toxicity intensity relative to 2,3,7,8-TCDD set to be 1; cited from earlier work

Structure (SMILES) | WHO-TEF
Clc1cc2c(cc1Cl)Oc1c(Cl)c(Cl)c(Cl)c(Cl)c1O2 [1,2,3,4,7,8-HxCDD] | 0.1
Clc1cc2c(c(Cl)c1Cl)Oc1cc(Cl)c(Cl)c(Cl)c1O2 [1,2,3,6,7,8-HxCDD] | 0.1
Clc1cc2c(c(Cl)c1Cl)Oc1c(cc(Cl)c(Cl)c1Cl)O2 [1,2,3,7,8,9-HxCDD] | 0.1
Clc1cc2c(cc1Cl)Oc1c(cc(Cl)c(Cl)c1Cl)O2 [1,2,3,7,8-PeCDD] | 1
Clc1cc2c(cc1Cl)Oc1cc(Cl)c(Cl)cc1O2 [2,3,7,8-TCDD] | 1
Clc1c(Cl)c(Cl)c2c(c1Cl)Oc1c(Cl)c(Cl)c(Cl)c(Cl)c1O2 [OCDD] | 0.0001

System: not given
Details: reported toxicity; cited from earlier work

Structure (SMILES) | toxicity
Clc1c(Cl)c(Cl)c2c(c1Cl)Oc1ccccc1O2 [1,2,3,4-TCDD] | without any reported toxicity
O=C1/C(=C2\Nc3ccccc3C2=O)Nc2ccccc21 [indigo] | comparatively low
